Measured values from patent publication US20060166900A1, “Salt of morphine-6-glucuronide” (CeNeS Limited, priority 2002, published 2006).

Columns and labels:
Type in all cases: physicochemical
[1] = Water content by Karl Fisher analysis on storage (Example 3)
Protocol: Water content (% w/w) by Karl Fisher analysis
(§1) Each test material was stored between 2-8*C prior to placing on stability. Each material was sub-divided into 900 mg aliquots, transferred to brown opaque HDPE plastic bottles and flushed with Argon prior to sealing. Sufficient samples were provided for each time point as well as spares for each storage condition. The samples were placed in appropriate incubators previously commissioned at storage conditions 25° C./60% RH, 40° C./75% RH and 60° C.
Water Content by Karl Fisher Analysis
Water content was determined in duplicate on an aliquot of equilibrated material (approximately 100 mg) using a Tritrino 720 KFS Titrator.

[2] = Visual appearance on storage (Example 3)
Protocol: as §1
The samples were stored for analysis according to the following table: […]

[3] = Stability indicating HPLC assay and related substances on storage (Example 3)
Protocol: Assay (% w/w) and related substances determination
as §1
Testing Procedures Test for Identity Content and Impurities
Testing was performed in duplicate (2×25 mg) in accordance with a stability indicating HPLC assay method. The assay results were reported as M6G as is, M6G as the anhydrous, solvent free material and the anhydrous solvent free material corrected for the salt form using the relevant conversion factor.

[4] = Colour of solution by visible spectrophotometry on storage (Example 3); conditions: 5% w/v solution in water
Protocol: Colour of solution by UV spectrophotometry.
as §1
Colour by Visible Spectrophotometry
A 5% w/v solution of test material was prepared in water and the absorbance measured at 420 nm in a 1 cm silica cell using a Unicam UV4 Visible/UV spectrophotometer.

[5] = Stability of M6G salts at room temperature over 6 years, HPLC; conditions: for Assay M6G corr.: content calculated as M6G derivative; for degradation / discolouration: storage at room temperature for six years, hydrobromide
[6] = almost 6 years at room temperature
[7] = listed as hydrobromide salt of M6G

Br.CN1CC[C@]23c4c5ccc(O)c4O[C@H]2[C@@H](O[C@@H]2O[C@H](C(=O)O)[C@@H](O)[C@H](O)[C@H]2O)C=C[C@H]3[C@H]1C5 [Morphine-6-glucuronide hydrobromide]
Moisture ([1]; 1 month, 25° C./60% RH): 2.56 % w/w
Moisture ([1]; 1 month, 40° C./75% RH): 3.19 % w/w
Moisture ([1]; 1 month, 60° C.): 1.95 % w/w
Moisture ([1]; 3 months, 25° C./60% RH): 3.28 % w/w
Moisture ([1]; 3 months, 40° C./75% RH): 4.24 % w/w
Moisture ([1]; Initial): 2.38 % w/w
Appearance ([2]; 1 month, 25° C./60% RH): White crystalline powder
Appearance ([2]; 1 month, 40° C./75% RH): White crystalline powder
Appearance ([2]; 1 month, 60° C.): White crystalline powder
Appearance ([2]; 3 months, 25° C./60% RH, hydrobromide): White crystalline powder
Appearance ([2]; 3 months, 25° C./60% RH, listed as hydrobromide, hydrobromide): white crystalline solids
Appearance ([2]; 3 months, 40° C./75% RH): White crystalline powder
Appearance ([2]; Initial): White crystalline powder
Known Related Substances HN33177 ([3]; 1 month, 25° C./60% RH): 0.74%
Known Related Substances HN75083 ([3]; 1 month, 25° C./60% RH): 0.03%
M6G Assay, Anhydrous basis ([3]; 1 month, 25° C./60% RH): 85.18 % w/w
M6G Assay, As is basis ([3]; 1 month, 25° C./60% RH): 83.02 % w/w
M6G Assay, Corrected for the salt form ([3]; 1 month, 25° C./60% RH): 100.11 % w/w
Total Known ([3]; 1 month, 25° C./60% RH): 0.77%
Total Related Substances ([3]; 1 month, 25° C./60% RH): 0.84%
Total Unknown ([3]; 1 month, 25° C./60% RH): 0.07%
Known Related Substances HN33177 ([3]; 1 month, 40° C./75% RH): 0.74%
Known Related Substances HN75076 ([3]; 1 month, 40° C./75% RH): 0.01%
Known Related Substances HN75083 ([3]; 1 month, 40° C./75% RH): 0.05%
M6G Assay, Anhydrous basis ([3]; 1 month, 40° C./75% RH): 85.09 % w/w
M6G Assay, As is basis ([3]; 1 month, 40° C./75% RH): 82.40 % w/w
M6G Assay, Corrected for the salt form ([3]; 1 month, 40° C./75% RH): 100.01 % w/w
Total Known ([3]; 1 month, 40° C./75% RH): 0.80%
Total Related Substances ([3]; 1 month, 40° C./75% RH): 0.80%
Total Unknown ([3]; 1 month, 40° C./75% RH): 0.00%
Known Related Substances HN33177 ([3]; 1 month, 60° C.): 0.66%
Known Related Substances HN67003 ([3]; 1 month, 60° C.): 0.10%
Known Related Substances HN75076 ([3]; 1 month, 60° C.): 0.04%
Known Related Substances HN75083 ([3]; 1 month, 60° C.): 0.02%
M6G Assay, Anhydrous basis ([3]; 1 month, 60° C.): 84.44 % w/w
M6G Assay, As is basis ([3]; 1 month, 60° C.): 82.82 % w/w
M6G Assay, Corrected for the salt form ([3]; 1 month, 60° C.): 99.25 % w/w
Total Known ([3]; 1 month, 60° C.): 0.82%
Total Related Substances ([3]; 1 month, 60° C.): 1.20%
Total Unknown ([3]; 1 month, 60° C.): 0.38%
stability based on % w/w assay ([3]; 3 month assay data): most stable
Known Related Substances HN33177 ([3]; 3 months, 25° C./60% RH): 0.77%
Known Related Substances HN75083 ([3]; 3 months, 25° C./60% RH): 0.04%
M6G Assay, Anhydrous basis ([3]; 3 months, 25° C./60% RH): 86.19 % w/w
M6G Assay, As is basis ([3]; 3 months, 25° C./60% RH): 84.30 % w/w
M6G Assay, Corrected for the salt form ([3]; 3 months, 25° C./60% RH): 101.30 % w/w
Total Known ([3]; 3 months, 25° C./60% RH): 0.81%
Total Related Substances ([3]; 3 months, 25° C./60% RH): 0.93%
Total Unknown ([3]; 3 months, 25° C./60% RH): 0.12%
Known Related Substances HN33177 ([3]; 3 months, 40° C./75% RH): 0.70%
Known Related Substances HN75076 ([3]; 3 months, 40° C./75% RH): 0.02%
M6G Assay, Anhydrous basis ([3]; 3 months, 40° C./75% RH): 85.85 % w/w
M6G Assay, As is basis ([3]; 3 months, 40° C./75% RH): 83.14 % w/w
M6G Assay, Corrected for the salt form ([3]; 3 months, 40° C./75% RH): 100.90 % w/w
Total Known ([3]; 3 months, 40° C./75% RH): 0.72%
Total Related Substances ([3]; 3 months, 40° C./75% RH): 0.72%
Total Unknown ([3]; 3 months, 40° C./75% RH): 0.00%
increase in the amount of degradation products as measured by HPLC ([3]; 3 months, 40° C./75% RH): basically no increase
stability assessment ([3]; 25° C./60% RH and 40° C./75% RH for 3 months and 60° C. for 1 month): stable
Known Related Substances HN33177 ([3]; Initial): 0.72%
Known Related Substances HN67003 ([3]; Initial): 0.04%
Known Related Substances HN75083 ([3]; Initial): 0.10%
M6G Assay, Anhydrous basis ([3]; Initial): 83.63 % w/w
M6G Assay, As is basis ([3]; Initial): 82.26 % w/w
M6G Assay, Corrected for the salt form ([3]; Initial): 98.29 % w/w
Total Known ([3]; Initial): 0.86%
Total Related Substances ([3]; Initial): 0.94%
Total Unknown ([3]; Initial): 0.08%
overall stability comparison ([3]; overall review of Example 3 data): more stable than all other salts and the base
Colour ([4]; 1 month, 25° C./60% RH): 0.073 Abs@420 nm
Colour ([4]; 1 month, 40° C./75% RH): 0.064 Abs@420 nm
Colour ([4]; 1 month, 60° C.): 0.261 Abs@420 nm
Colour ([4]; 3 months, 25° C./60% RH): 0.046 Abs@420 nm
Colour ([4]; 3 months, 40° C./75% RH): 0.066 Abs@420 nm
Colour ([4]; Initial): 0.029 Abs@420 nm
HN-33177 ([5]; 0 years): 0.3%
HN-75083 ([5]; 0 years): <0.1%
Unknown related substances (sum area %) ([5]; 0 years): <0.1 area %
Assay M6G corr. ([5]; 0 years): 90.7%
HN-33177 ([5]; 6 years at ambient temperature): 0.4%
HN-67002 ([5]; 6 years at ambient temperature): 0.5%
HN-67003 ([5]; 6 years at ambient temperature): 0.2%
Unknown related substances (sum area %) ([5]; 6 years at ambient temperature): 1.0 area %
Assay M6G corr. ([5]; 6 years at ambient temperature): 96.3%
largest unidentified peak [5, 6]: ≤ 0.4 area %
peaks present in the chromatogram that cannot be identified by retention time [5, 6]: 4
degradation ([5]; listed as M6G.HBr): very limited amount of degradation
discolouration ([5]; listed as M6G.HBr): no discolouration
degradation [5, 7]: very limited degradation
discolouration [5, 7]: not discoloured
